PubChem BioAssay AID504510 (The Scripps Research Institute Molecular Screening Center, 2011)
Activity calls are given as the source filed them. How the calls were made is not given here.

Experiment: cell viability loss from compound exposure – absorbance, serum-free and serum media, set 2, cytotoxicity control for LYPLA1 inhibitor project, late-stage follow-up (AID 504510)
Conditions: serum-free vs serum media

| SMILES | CC50 (serum-free media) | CC50 (with FCS) |
| --- | --- | --- |
| COCC1CCCCN1C(=O)n1ncc(C(O)(c2ccccc2)c2ccccc2)n1 (centres undefined) | > 50 µM (inactive) | > 50 µM (inactive) |
| CCC1CCCCN1C(=O)n1ncc(C(O)(c2ccccc2)c2ccccc2)n1 (centres undefined) | > 50 µM (inactive) | > 50 µM (inactive) |
